The conditions of the data set: Crystal 1; visual observation.

Among the data in the NIST ThermoML archive (doi:10.1016/j.jct.2012.03.031) are Triple point temperature values, retold here.

± gives the expanded uncertainty stated by the source.

In the case of `CCCCc1ccc(C(=O)Oc2ccc(C#N)c(F)c2)cc1` [4-cyano-3-fluorophenyl 4-butylbenzoate], the Triple point temperature came out at 288.43 ± 0.39 K.
